Where two headings read alike, the source gives them in different places. Some results are limits rather than exact numbers.

This is an account of results in US20260070927A1, “INDAZOLE MACROCYCLES FOR THE TREATMENT OF AUTOIMMUNE DISEASE” (Hoffmann-La Roche Inc., priority 2022, published 2026).

Series [1] has as its target human stimulator of interferon genes (STING) (139-379) (Homo sapiens (Human), UniProt Q86WV6). The experiment in a line: Microliter plate-based TR-FRET competition-binding assay for binders of STING. To be noted: Alexa488 probe, read-out: FRET_IC50. The method in brief: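 E. coli-expressed C-terminal flag-tagged STING (139-379) at 2.5 nM with 2.5 nM Tb-anti-Flag and 250 nM Alexa488-labelled active-site probe, 30 min at room temperature. TR-FRET 520/485 nm ratio after 320 nm excitation. Percent inhibition calculated relative to the 2′3′cGAMP positive control.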
Background: TR-FRET usually uses a lanthanide donor and a delayed reading to cut background.

The conditions of series [2]: microsomes.
Procedure: (§1) The liver microsomal stability assay is used for early assessment of metabolic stability of a test compound in liver microsomes.
(§2) Liver microsomes were preincubated with test compound for 10 minutes at 37° C. in 100 mM potassium phosphate buffer, pH 7.4. The reactions were initiated by adding NADPH regenerating system. The final incubation mixtures contained 1 μM test compound, 0.5 mg/mL liver microsomal protein, 1 mM MgCl2, 1 mM NADP, 1 unit/mL isocitric dehydrogenase and 6 mM isocitric acid in 100 mM potassium phosphate buffer, pH 7.4. After incubation times of 0, 3, 6, 9, 15 and 30 minutes at 37° C., 300 μL of cold acetonitrile (including internal standard) was added to 100 μL incubation mixture to terminate the reaction. Following precipitation and centrifugation, the amount of compound remaining in the samples were determined by LC-MS/MS. Controls of no NADPH regenerating system at zero and 30 minutes were also prepared and analyzed.
The test system of a further series is STING (IFN-β in hPBMC). In words: hPBMC cytokine functional assay (IFN-β decrease after Baculovirus stimulation). The following applies: Homo sapiens, Baculovirus MOI 40, 24 hours, read-out: hPBMC_IC50. The format is cell-based. The method in brief: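 Thawed hPBMC (70K cells/well) rested ≥3 h, then dosed with compound (final 0.5% DMSO) and infected with Baculovirus at MOI 40. Secreted IFN-β read by HTRF after 24 h at 37 °C. Cell viability checked in parallel by CellTiter-Glo.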

Another series concerns the target hERG channel (Homo sapiens (Human), UniProt Q12809). The experiment in a line: hERG channel inhibition assay (patch-clamp, CHOhERG cells). The class given is cell-based. To be noted: for IC20: human, CHO cells stably expressing hERG (CHOhERG). An excerpt:
The hERG K^+ channels were cloned in humans and stably expressed in a CHO (Chinese hamster ovary) cell line. CHOhERG cells (obtained from Roche Palo Alto LLC Cell Core Facilities) were used for patch-clamp (voltage-clamp, whole-cell) experiments. Cells were stimulated by a voltage pattern to activate hERG channels and conduct IKhERG currents (rapid delayed outward rectifier potassium current of the hERG channel). After the cells were stabilized in an internal solution that contains (in mM): KCl 10, KF 100, NaCl 10, HEPES 10, EGTA 20, pH=7.2 with KOH (osmolarity 260-300 mOsm) for a few minutes, the amplitude and kinetics of IKhERG were recorded at a stimulation frequency of 0.1 Hz (6 bpm). Thereafter, the test compound was dissolved in extracellular solution that contains (in mM): NaCl 150, KCl 4, CaCl2 1.2, MgCl2 1, HEPES 10, glucose 5, pH 7.2-7.4 with NaOH (osmolarity 290-330 mOsm), and was added to the preparation at increasing concentrations. For each concentration, an attempt was made to reach a steady-state effect, usually, this was achieved within 3-10 min at which time the next highest concentration was applied. The amplitude and kinetics of IKhERG are recorded in each concentration of the drug which were compared to the control values (taken as 100%).
In general terms: Block of hERG is tested as a sign of cardiac risk.

Series [3] is described as follows: Single dose pharmacokinetics (SDPK) study in male C57BL/6J mice. The class given is in vivo. The following applies: mouse; for clearance / AUC / half-life / Vd / Cmax: male, C57BL/6J, plasma; for half-life: read-out: T½ (converted); for Vd: read-out: Vss; for F: dose normalized AUCo-last after IV 1 mg/kg and PO 10 mg/kg. How it is done:
Single Dose Pharmacokinetics (SDPK) Study in Male C57BL/6J Mice Pharmacokinetic properties of compounds were assessed by single dose PK studies in Male C57BL/6J Mice (vendor: WTLH-BJ). Briefly, two groups of animals were administered a single dose of respective compound intravenously (IV, bolus) at 1 mg/kg or orally (PO, by gavage) at 10 mg/kg. Blood samples were collected via Jugular vein at 5 min (only for IV), 15 min, 30 min, 1 h, 2 h, 4 h, 7 h and 24 h post-dose. Blood samples were placed into pre-chilled commercial EDTA-K2 tubes (vendor: Jiangsu Kangjian medical supplies co., LTD) and centrifuged at 3,200 g for 10 min at 4° C. to separate plasma from the samples. After centrifugation, the resulting plasma was transferred to clean tubes for bioanalysis with LC/MS/MS. The pharmacokinetic parameters were calculated using noncompartmental analysis. The volume of distribution (Vss), half-life (T1/2) and clearance (CL) were obtained based on the plasma concentration-time curve after IV dose. The peak concentration (Cmax) was recorded directly from experimental observations after PO dose. The area under the plasma concentration-time curve (AUCo-last) was calculated using the linear trapezoidal linear interpolation rule up to the last detectable concentration. The bioavailability (F) was calculated based on the dose normalized AUCo-last after IV and PO dose.

Series [4] in a line: Metabolic (liver microsomal) stability assay. The following applies: human liver microsomes, 1 μM test compound. On the technique in general: Liver microsomes are vesicles of endoplasmic reticulum, rich in cytochrome P450 enzymes.
Procedure: as §1, §2
Where [5] appears, read: IV 1 mg/kg, read-out: IV AUCo-last.
[6] abbreviates: PO 10 mg/kg, read-out: PO AUCo-last.

Sequence of human stimulator of interferon genes (STING) (139-379) (Q86WV6 139-379): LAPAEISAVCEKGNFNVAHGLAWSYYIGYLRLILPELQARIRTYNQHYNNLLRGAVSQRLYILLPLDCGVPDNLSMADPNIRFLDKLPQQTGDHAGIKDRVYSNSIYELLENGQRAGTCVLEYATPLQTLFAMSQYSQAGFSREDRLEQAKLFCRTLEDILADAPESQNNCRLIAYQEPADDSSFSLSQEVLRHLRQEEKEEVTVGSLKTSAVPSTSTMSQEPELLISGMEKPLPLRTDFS
Sequence of hERG channel (Q12809 whole entry): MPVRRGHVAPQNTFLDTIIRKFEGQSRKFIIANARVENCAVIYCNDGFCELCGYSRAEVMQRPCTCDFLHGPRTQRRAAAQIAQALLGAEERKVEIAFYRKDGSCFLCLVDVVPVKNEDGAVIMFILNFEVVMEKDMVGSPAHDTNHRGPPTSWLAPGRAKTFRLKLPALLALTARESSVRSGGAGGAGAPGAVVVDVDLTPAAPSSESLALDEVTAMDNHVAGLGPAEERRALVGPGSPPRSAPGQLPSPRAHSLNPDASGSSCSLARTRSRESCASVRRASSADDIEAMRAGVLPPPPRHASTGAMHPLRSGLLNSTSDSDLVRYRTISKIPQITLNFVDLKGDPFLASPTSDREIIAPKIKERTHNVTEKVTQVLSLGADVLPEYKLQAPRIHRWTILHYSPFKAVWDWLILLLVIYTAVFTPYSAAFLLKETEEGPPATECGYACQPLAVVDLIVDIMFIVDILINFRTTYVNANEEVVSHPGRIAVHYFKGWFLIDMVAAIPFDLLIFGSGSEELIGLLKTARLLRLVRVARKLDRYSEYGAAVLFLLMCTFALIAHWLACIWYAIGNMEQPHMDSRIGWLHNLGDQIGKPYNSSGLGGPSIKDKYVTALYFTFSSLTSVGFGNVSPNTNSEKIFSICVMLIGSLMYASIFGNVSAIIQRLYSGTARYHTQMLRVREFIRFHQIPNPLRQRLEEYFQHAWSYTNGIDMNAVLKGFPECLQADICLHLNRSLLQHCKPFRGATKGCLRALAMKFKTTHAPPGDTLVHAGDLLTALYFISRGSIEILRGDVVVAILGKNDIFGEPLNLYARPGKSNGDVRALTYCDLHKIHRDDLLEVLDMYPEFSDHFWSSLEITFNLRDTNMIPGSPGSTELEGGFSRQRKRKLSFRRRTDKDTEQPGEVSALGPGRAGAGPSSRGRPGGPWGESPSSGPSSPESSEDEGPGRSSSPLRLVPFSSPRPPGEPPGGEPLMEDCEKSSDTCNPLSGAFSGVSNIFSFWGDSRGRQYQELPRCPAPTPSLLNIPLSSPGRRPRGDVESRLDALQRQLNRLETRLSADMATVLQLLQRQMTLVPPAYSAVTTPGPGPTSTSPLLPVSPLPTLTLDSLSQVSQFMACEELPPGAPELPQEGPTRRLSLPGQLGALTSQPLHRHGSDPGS

Turning to `COc1cc(F)ccc1-n1ncc2c(N3C[C@@H]4C[C@H]3C(=O)N(CCCN3CCOCC3)CCCc3c5c(cccc5nn3C)-c3ccnc(n3)N4)ncnc21` [Example 47, (8S,11S)-10-[1-(4-fluoro-2-methoxy-phenyl)pyrazolo[3,4-d]pyrimidin-4-yl]-18-methyl-13-(3-morpholinopropyl)-5,7,10,13,18,19,26-heptazapentacyclo[15.6.1.1^2,6.1^8,11.0^20,24]hexacosa-1(23),2(26),3,5,17(24),19,21-heptaen-12-one], the IC50 in series [1] was 7.2 nM. Moreover, the “Clearance of human microsome” value in series [2] turned out to be 6.1 mL/min/kg.

For the compound `COc1cc(F)ccc1-n1ncc2c(N3C[C@@H]4C[C@H]3C(=O)N(C)CCCc3c5c(cccc5nn3C)-c3ccnc(n3)N4)ncnc21` [Example 6, (8S,11S)-10-[1-(4-fluoro-2-methoxy-phenyl)pyrazolo[3,4-d]pyrimidin-4-yl]-13,18-dimethyl-5,7,10,13,18,19,26-heptazapentacyclo[15.6.1.1^2,6.1^8,11.0^20,24]hexacosa-1(23),2,4,6(26),17(24),19,21-heptaen-12-one], in series [1], the IC50 was 5 nM. The IC50 in the series with STING (IFN-β in hPBMC) amounted to 588 nM. At hERG channel, the IC50 is above 20000 nM and the concentration for an effect of 20% (IC20) is above 10000 nM. Moreover, in series [3] (IV 1 mg/kg), the clearance worked out at 14.5 mL/min/kg, the half-life was 48 min and the Vd was 0.9 L/kg. Besides, the AUC in series [3] (setting [5]) turned out to be 1120 ng·h/mL. The Cmax in series [3] (PO 10 mg/kg) worked out at 2990 ng/mL. Further, the AUC in series [3] (setting [6]) amounted to 4740 ng·h/mL. The F in series [3] stood at 42%. Also, the “Clearance of human microsome” value in series [4] is on record as 15.7 mL/min/kg.

Take `CN1CCCc2c3c(cccc3nn2C)-c2ccnc(n2)O[C@H]2C[C@@H](C1=O)N(c1ncnc3c1cnn3-c1ccc(F)cc1F)C2` [Example 11, (8S,11S)-10-[1-(2,4-difluorophenyl)pyrazolo[3,4-d]pyrimidin-4-yl]-13,18-dimethyl-7-oxa-5,10,13,18,19,26-hexazapentacyclo[15.6.1.1^2,6.1^8,11.0^20,24]hexacosa-1(23),2(26),3,5,17(24),19,21-heptaen-12-one]: the results for the IC50 (in series [1]; in the series with STING (IFN-β in hPBMC); at hERG channel) were 21.4 nM, 803 nM and above 20000 nM, respectively. The compound also yielded a concentration for an effect of 20% (IC20) against hERG channel above 10000 nM. In series [3] (IV 1 mg/kg), this compound came in with a clearance of 11.1 mL/min/kg. Also, the results for the AUC in series [3] (setting [5]) and in series [3] (setting [6]) were 1500 ng·h/mL and 7120 ng·h/mL, respectively. The half-life in series [3] (IV 1 mg/kg) was 60 min. Further, in series [3] (IV 1 mg/kg), the Vd came to 0.8 L/kg. Besides, in series [3] (PO 10 mg/kg), the maximum concentration (Cmax) was 2780 ng/mL. Moreover, the F in series [3] is reported as 48%. Moreover, the “Clearance of human microsome” value in series [4] is recorded as 6.1 mL/min/kg.

As a reminder, the IC20 is the point of the concentration-response curve where the effect stands at 20%. Low readings indicate an effect from little substance, high ones a need for much substance. What is called clearance is a measure of how efficiently the substance is removed, as volume per time. High values mean efficient removal, low ones inefficient removal. What is called Cmax is the highest concentration seen after dosing.
